Reference: PubChem BioAssay (NCI)
Values joined by “and” are separate entries in the source; they are usually repeats but may differ in a detail not shown here. Equal values may be shown once.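 Growth conditions: 96-well plates. Treatment: test compound, 48 hours, 5 concentrations. Analysis: linear interpolation between bracketing concentrations; unreached endpoints set to highest concentration. GI50 marks 50% less growth. TGI denotes the concentration required for complete inhibition of growth.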

How the values were obtained:
Test in all cases: growth of human tumour cells (NCI), 48 h
[1] = system: ACHN renal
[2] = system: NCI-H23 lung
[3] = system: NCI-H522 lung
[4] = system: NCI/ADR-RES ovarian
[5] = system: SF-295 CNS
[6] = system: SK-MEL-28 melanoma
[7] = system: SK-MEL-5 melanoma
[8] = system: SNB-19 CNS

Compound	TGI [1]	TGI [2]	TGI [3]	TGI [4]	TGI [5]	TGI [6]	TGI [7]	TGI [8]	GI50 [1]	GI50 [2]	GI50 [3]	GI50 [4]	GI50 [5]	GI50 [6]	GI50 [7]	GI50 [8]
c1ccc(CCc2cccnc2)nc1	> 100 µM	> 100 µM	> 100 µM	> 100 µM	> 100 µM	> 100 µM	> 100 µM	> 100 µM								
COc1ncnc(NS(=O)(=O)c2ccc(N=C3C(=O)N(CN4CCN(c5c(F)cc6c(=O)c(C(=O)O)cn(C7CC7)c6c5OC)CC4C)c4ccc(Br)cc43)cc2)c1OC (stereo not given)	> 50 µM	27 µM	> 50 µM	> 50 µM	> 50 µM	> 50 µM	14.5 µM	> 50 µM	22.5 µM	8.79 µM	31 µM	7.06 µM	20.8 µM	> 50 µM	5.52 µM	19.4 µM
Cc1cc(N=Nc2ccccc2C)ccc1N	28.7 µM and 45.8 µM	14.7 µM and 42.3 µM	22.9 µM	25 µM and 43.2 µM	25.2 µM and 31.3 µM	44.3 µM	29.2 µM and 27.4 µM	> 100 µM and 56 µM	14.7 µM	16.5 µM	6.94 µM	13.7 µM			14.1 µM	16.4 µM
O=C(/C=C/c1cccc(O)c1)c1cccc(-n2cc(-c3ccccc3)[nH]c2=O)c1	7.4 µM	14.4 µM	4.3 µM	15.3 µM	11.8 µM	20.6 µM	6.59 µM	18.6 µM	2.72 µM	3.64 µM	1.5 µM	3.94 µM	5.77 µM	8.07 µM	2.41 µM	6.58 µM
Oc1c(I)cc(I)c2cccnc12	26.8 µM	9.52 µM	> 100 µM	8.84 µM	8.13 µM	> 100 µM	16.5 µM	22.5 µM	4.19 µM	2.19 µM	2.96 µM	2.48 µM	3.1 µM	13.2 µM	2.4 µM	3.33 µM
c1ccc2cc(-c3n(Cc4ccc5ccccc5n4)c4ccccc4[n+]3Cc3ccc4ccccc4n3)ccc2c1	1.95 µM	1.09 µM	1.25 µM	26.4 µM	1.09 µM	1.65 µM	0.422 µM	1.32 µM	0.717 µM	0.285 µM	0.321 µM	6.6 µM	0.301 µM	0.423 µM	0.201 µM	0.315 µM
OCCNC1c2cc(Cl)ccc2-c2c(Cl)cc(Cl)cc21 (stereo not given)	67 µM	> 100 µM	> 100 µM	> 100 µM	> 100 µM	> 100 µM	> 100 µM	> 100 µM								
OC(C#Cc1ccccc1)(c1ccccc1)c1ccccc1	> 100 µM	> 100 µM	> 100 µM	> 100 µM	77.7 µM	> 100 µM	37.7 µM	> 100 µM								
COC1=C(OC)C(=O)C(SC/C=C(\C)CCCC(C)CCCC(C)CCCC(C)C)=CC1=O (stereo not given)	> 100 µM	36.1 µM	> 38.1 µM	> 46.7 µM	2.88 µM	> 100 µM	1.73 µM	> 100 µM	2.04 µM	1.37 µM	0.635 µM	0.784 µM	0.734 µM	1.04 µM	0.341 µM	1.5 µM
N#CC1=C(/N=C/c2ccccc2)Oc2c(ccc3ccccc23)C1c1ccccc1 (stereo not given)	> 100 µM	> 100 µM		1.05 µM	> 100 µM	> 100 µM	2.5 µM	> 100 µM	0.591 µM	0.715 µM	0.298 µM	0.285 µM	0.357 µM		0.378 µM	0.702 µM
O=C(O)Cc1cccnc1	> 100 µM	> 100 µM	> 100 µM	> 100 µM	> 100 µM	> 100 µM	> 100 µM	> 100 µM								
CC(C)(O)CNc1nc(Nc2ccnc(C(F)(F)F)c2)nc(-c2cccc(C(F)(F)F)n2)n1	66.7 µM	42.8 µM	49.3 µM	53.8 µM	35.3 µM	36.2 µM	26.3 µM	> 100 µM	23.5 µM	18.1 µM	18.6 µM	17.1 µM	17.1 µM	17.8 µM	13.2 µM	34.4 µM
CSc1nc2sc3c(c2c(=O)n1-c1ccc(C(C)C)cc1)CCC(=O)C3	4.48 µM	4.53 µM	3.72 µM	5.13 µM	4.76 µM	4.62 µM	3.36 µM	4.56 µM	2.25 µM	2.2 µM	1.96 µM	2.36 µM	2.2 µM	2.45 µM	1.71 µM	2.15 µM
Nc1nc(Nc2ccccc2SSc2ccccc2Nc2nc(N)nc(C(Cl)(Cl)Cl)n2)nc(C(Cl)(Cl)Cl)n1	3.2 µM	13.9 µM	10.3 µM	16.6 µM	4.75 µM	23.6 µM	32.2 µM	17.8 µM	1.7 µM	3.66 µM	2.6 µM	3.68 µM	1.99 µM	10.9 µM	5.97 µM	4.41 µM
Cc1cc(C#Cc2ccc(C(C)(C)C)cc2)ccc1-n1c(/C=C/c2ccc(O)cc2O)nc2ccccc2c1=O	13.4 µM	6.8 µM	5.5 µM	13.4 µM	16.5 µM	7.27 µM	3.98 µM	22.5 µM	3.26 µM	2.42 µM	1.83 µM	3.17 µM	3.83 µM	2.42 µM	1.77 µM	7.9 µM
C#CCNC(=O)[C@H](CC)[C@H]1CC[C@H](C)[C@H]([C@@H](C)[C@H](O)[C@H](C)C(=O)[C@H](CC)C2O[C@]3(C=CC(=O)[C@]4(CC[C@@](C)([C@H]5CC[C@](O)(CC)[C@H](C)O5)O4)O3)[C@H](C)C[C@@H]2C)O1 (stereo not given in full)	14.6 µM	> 100 µM	5.39 µM	7.72 µM	3.56 µM	3.96 µM	3.11 µM	7.96 µM	2.94 µM	2.83 µM	1.87 µM	2.26 µM	1.57 µM	1.87 µM	1.69 µM	2.36 µM
